This assay has as its system mouse model of type II diabetes with pancreatic islet damage and obesity (ICR mice, STZ and high-fat diet). The assay is described as follows: Blood glucose in mouse type II diabetes model with pancreatic islet damage and obesity (limonoid compound, alogliptin or combination). In kind it is in vivo. As to conditions: single administration 0.5 g/kg per day by gavage, two weeks, 1 h after the last administration, mean ± SD. The text has this:
In this example, a mouse model of type II diabetes with pancreatic islet damage and obesity was established by multiple modeling ICR mice with a small dose of streptozotocin (STZ), following with continuous high-fat diets (referring to literature: Zhang Jiyuan et al, Study on the effect of three plant extracts on improving glucose and lipid metabolism in type 2 diabetic mice, Food and Machinery, 2016, 32 (12): 142-147). […]
Experimental grouping: 15 male mice were randomly selected as the normal control group, and the remaining mice were subjected to a high-fat diet (high-fat diet formula: cholesterol 1%, egg yolk powder 10%, lard oil 10%, and basic feed 79%, for establishing an obesity mouse model) for consecutive 4 weeks and intraperitoneal injection of STZ at a dose of 35 mg/kg for three consecutive days. After one week, the mice were subject to 24 hours of fasting and water deprivation, their fasting blood glucose was measured, and the mice with a blood glucose level of 15 to 25 mmol/L were selected and undifferentiatedly grouped and used in the experiment, continuously subjected to the high-fat diet, 15 mice in each group, and subjected to blood sampling and detection of indicators after 2 weeks of administration. […]

In the case of `Cn1c(=O)cc(N2CCC[C@@H](N)C2)n(Cc2ccccc2C#N)c1=O` [Alogliptin, alogliptin], the Blood glucose value is on record as 14.5 ± 2.8 mmol/L.

The values are drawn from US20220226283A1, “COMBINATION PRODUCT CONTAINING LIMONOID COMPOUND AND DPP-4 INHIBITOR” (ZHEJIANG YANGSHENGTANG INSTITUTE OF NATURAL MEDICATION CO., …, priority 2019, published 2022).
